Data on two compounds can be found in US20250145566A1, “PHENETHYLAMINE DERIVATIVES, COMPOSITIONS, AND METHODS OF USE” (Cybin IRL Limited, priority 2022, published 2025).

The target of series [1] is Norepinephrine transporter (Homo sapiens, UniProt P23975). Kind of series: Norepinephrine transporter uptake (h). It counts as cell-based.
The target of the next series is T1, 5-HT transporter (h) (Homo sapiens, UniProt P31645).
T1 construct: expressed in transfected cells; host or cells: CHO cells
Kind of series: 5-HT transporter (h) binding, [3H]imipramine. As to conditions: for selectivity for binding SERT over DAT and NET, in words: affinity screen at 10 μM.

Another series has as its target T2, MAO-A (Homo sapiens, UniProt P21397).
T2 construct: purchased XenoTech (first series); Corning (second series) Corning 456283
T2 sequence (P21397 1-527): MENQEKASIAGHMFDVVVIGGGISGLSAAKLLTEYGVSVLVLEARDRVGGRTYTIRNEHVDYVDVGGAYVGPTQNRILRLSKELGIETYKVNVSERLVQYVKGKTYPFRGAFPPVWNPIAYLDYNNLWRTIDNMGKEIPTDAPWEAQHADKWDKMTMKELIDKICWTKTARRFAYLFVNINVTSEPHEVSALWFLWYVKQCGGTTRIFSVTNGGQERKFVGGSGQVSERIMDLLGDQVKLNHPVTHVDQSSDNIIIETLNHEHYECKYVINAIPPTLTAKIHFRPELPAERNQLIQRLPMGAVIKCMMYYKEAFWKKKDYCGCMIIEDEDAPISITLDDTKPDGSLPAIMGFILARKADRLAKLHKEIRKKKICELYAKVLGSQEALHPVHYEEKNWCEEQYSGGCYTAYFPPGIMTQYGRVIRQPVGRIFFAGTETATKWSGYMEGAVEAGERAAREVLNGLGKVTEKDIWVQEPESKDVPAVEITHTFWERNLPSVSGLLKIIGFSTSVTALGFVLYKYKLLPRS
The series can be described thus: Recombinant human MAO-A in vitro metabolism. As to conditions: for half-life at 1 µM: human, recombinant human MAO-A. The series is classed as in vitro ADME. As for the experimental part: Recombinant human MAO-A. hrMAO-A and MAO control were purchased from XenoTech. The reaction mixture was prepared as described in Table 11. The test compound was added into the reaction mixture at a final concentration of 1 μM. The positive control kynuramine (25 μM) was run simultaneously with the test compound in a separate reaction. The reaction mixture (without test compounds or kynuramine) was equilibrated in a shaking water bath at 37° C. for 5 minutes. The reaction was initiated by the addition of the test compound or kynuramine, and the mixture was incubated in a shaking water bath at 37° C. Aliquots (150 μL) of the test compound reaction mixture were withdrawn at 0, 5, 10, 20, 30, 60, and for some assays at 120 minutes. Aliquots (150 μL) of the positive control reaction mixture were withdrawn at 0 and 30 minutes. Test compound and kynuramine samples were immediately combined with 150 μL of ice-cold 100% acetonitrile containing 0.1% formic acid and internal standard (0.2 μM metoprolol) to terminate the reaction. The samples were then mixed and centrifuged to precipitate proteins. All samples were assayed by LC-MS/MS. The peak area response ratio (PARR) of analyte to internal standard at each time point was compared to the PARR at time 0 to determine the percent remaining at each time point. Half-lives were calculated using GraphPad software, fitting to a single-phase exponential decay equation.
In a different series of reactions using human MAO-A and MAO-B, a 10 mM stock solution of the test compound was prepared in DMSO. From this stock solution, an intermediate stock solution of 1 mM was prepared by diluting the compound in DMSO and from this intermediate stock solution, a working solution of 0.30 mM was prepared by diluting the compound in ACN:Water (50:50) as cocktail of 2 compounds (30 μL each compound in 40 μL diluent for 100 μL). Following this, a master mix of 0.1 M potassium phosphate buffer and test compound mixture i.e., the non-deuterated and the deuterated analog, were prepared to achieve final drug concentration of 1 μM (0.2% DMSO) for the required number of reactions. The aforementioned master mix was pre-incubated at 37° C. for 5 min. To this master mix, MAO-A (final protein conc. 0.1 mg/mL; Corning Cat #456283; Lot #1173003) or MAO-B (final protein conc. 0.1 mg/mL; Corning Cat #456284; Lot #0318001) was added to initiate the reaction. The samples were then incubated at 37° C. for the desired time points. At each time point (0, 5, 15, 30, 45, 60), 40 μL of the samples were withdrawn and reactions were stopped using 200 μL chilled ACN containing 0.1% formic acid and internal standard Carbamazepine (10 ng/mL). The samples were centrifuged, and the supernatant was analyzed by LC-MS/MS. The percent compound remaining at each time point was calculated with respect to that of the 0 min sample. The data were then analyzed to calculate half-life and intrinsic clearance (CLint). Blank samples were prepared using DMSO (without the test compound).

The mark [2] stands for this setting: human recombinant MAO-A, test compound 1 μM, read-out: MAO-A t1/2.

Like-named read-outs stand apart in the source and are kept apart here. Bounds are passed on as bounds.

As usually defined, the IC50 is the concentration that gives 50% inhibition. A high value points to lower potency. As a reminder, the inhibition is the drop in the measured response relative to a control, in per cent.

T1 sequence (P31645 whole entry): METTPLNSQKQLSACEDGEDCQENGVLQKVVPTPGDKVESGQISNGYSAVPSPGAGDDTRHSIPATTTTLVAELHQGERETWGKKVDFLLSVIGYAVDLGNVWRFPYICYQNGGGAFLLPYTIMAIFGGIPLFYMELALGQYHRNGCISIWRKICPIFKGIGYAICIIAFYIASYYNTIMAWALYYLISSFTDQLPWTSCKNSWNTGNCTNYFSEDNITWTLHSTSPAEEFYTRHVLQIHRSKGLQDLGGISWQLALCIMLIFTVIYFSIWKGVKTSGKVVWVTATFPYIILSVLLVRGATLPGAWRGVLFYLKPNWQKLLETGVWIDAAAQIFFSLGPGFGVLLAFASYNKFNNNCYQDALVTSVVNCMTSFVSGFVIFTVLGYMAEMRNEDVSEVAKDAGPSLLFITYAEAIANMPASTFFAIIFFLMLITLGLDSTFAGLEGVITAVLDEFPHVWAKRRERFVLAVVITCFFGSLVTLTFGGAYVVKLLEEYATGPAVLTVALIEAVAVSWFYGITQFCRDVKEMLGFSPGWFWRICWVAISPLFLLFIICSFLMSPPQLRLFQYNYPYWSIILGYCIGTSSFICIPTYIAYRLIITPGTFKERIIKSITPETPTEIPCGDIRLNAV
Sequence of Norepinephrine transporter (P23975 whole entry): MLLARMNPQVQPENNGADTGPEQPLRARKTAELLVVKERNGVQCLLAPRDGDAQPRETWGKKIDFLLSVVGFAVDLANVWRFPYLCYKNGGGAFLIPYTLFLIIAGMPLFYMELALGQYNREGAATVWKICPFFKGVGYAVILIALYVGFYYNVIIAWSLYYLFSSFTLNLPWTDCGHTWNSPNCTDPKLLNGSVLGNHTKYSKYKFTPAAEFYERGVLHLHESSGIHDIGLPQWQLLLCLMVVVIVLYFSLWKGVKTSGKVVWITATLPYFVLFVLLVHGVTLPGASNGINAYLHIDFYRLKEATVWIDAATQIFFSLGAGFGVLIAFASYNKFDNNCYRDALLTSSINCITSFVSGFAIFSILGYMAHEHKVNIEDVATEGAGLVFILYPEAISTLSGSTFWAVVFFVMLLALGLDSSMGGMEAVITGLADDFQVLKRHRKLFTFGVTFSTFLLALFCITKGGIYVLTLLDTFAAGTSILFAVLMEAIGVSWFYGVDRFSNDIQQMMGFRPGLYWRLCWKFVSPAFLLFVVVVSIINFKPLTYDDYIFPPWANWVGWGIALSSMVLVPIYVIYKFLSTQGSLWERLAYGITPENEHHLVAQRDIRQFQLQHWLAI

As to `CC(N)Cc1ccc2c(c1)OCS2` (stereo not drawn) [II-16, 1-(benzo[d][1,3]oxathiol-6-yl)propan-2-amine], the “efficacy for blocking NE uptake through NET, in words” value in series [1] (tested at 1, 10, 100 μM) is “full efficacy”. Moreover, on 5-HT transporter (h), the “selectivity for binding SERT over DAT and NET, in words” value is “substantial selectivity for binding SERT over DAT and NET”. On MAO-A (setting [2]), the half-life at 1 µM is greater than 120 min. Further, the “stability in the presence of MAO-A” value on MAO-A (result in words) is given as “stable”.
In series [1], `NCCc1ccc2c(c1)OCS2` [II-14, 2-(benzo[d][1,3]oxathiol-6-yl)ethan-1-amine] had an IC50 of roughly 5 µM. The inhibition at 100 µM in series [1] (at 100 μM, read-out: Function NET, inhibition of NET) turned out to be 92.9%. Further, the “Function NET (blocking reuptake of NE), efficacy in words” value in series [1] (tested at 1, 10, 100 μM) was “Near full efficacy,”. Further, the “efficacy for blocking NE uptake through NET, in words” value in series [1] (tested at 1, 10, 100 μM) is given as “full efficacy”. The “selectivity for binding SERT over DAT and NET, in words” value at 5-HT transporter (h) is “substantial selectivity for binding SERT over DAT and NET”. In addition, the “Binding SERT (antagonist radioligand), % competition” value on 5-HT transporter (h) (at 10 μM) is 54.7% competition. The half-life at 1 µM at MAO-A (1 μM test compound, read-out: half-life, MAO-A metabolism) was no more than 8 min; at MAO-A (setting [2]), 4.09 min.
